{"source": "paper PMC5218480", "about": "(PLoS ONE, 2017)", "tested_on": "MV-4-11 cells", "experiment": "Gene expression microarray analysis (Affymetrix PrimeView) and GSEA", "assay_type": "cell-based, human", "parameters": "RFU PODN (11730768_x_at) / Fold change /veh PODN (11730768_x_at) / RFU LINC00158 (11744669_a_at) / Fold change /veh LINC00158 (11744669_a_at) / RFU DUSP10 (11751237_a_at) / Fold change /veh DUSP10 (11751237_a_at) / RFU ID3 (11757404_x_at) / Fold change /veh ID3 (11757404_x_at) / RFU PLEKHG5 (11737974_s_at) / Fold change /veh PLEKHG5 (11737974_s_at) / RFU LRRC4B (11730491_at) / Fold change /veh LRRC4B (11730491_at) / RFU GIMAP4 (11747438_a_at) / Fold change /veh GIMAP4 (11747438_a_at) / RFU KRT8 (11758183_x_at) / Fold change /veh KRT8 (11758183_x_at) / RFU CNN1 (11734310_a_at) / Fold change /veh CNN1 (11734310_a_at) / RFU VPS37D (11726825_at) / Fold change /veh VPS37D (11726825_at) / RFU C10orf10 (11716522_x_at) / Fold change /veh C10orf10 (11716522_x_at) / RFU KIR2DL2 /// KIR2DL4 /// KIR2DL5A /// KIR2DL5B /// KIR2DS1 /// KIR2DS2 /// KIR2DS3 /// KIR2DS4 /// KIR3DL3 /// KIR3DL3 /// KIR3DS1 (11738374_at) / Fold change /veh KIR2DL2 /// KIR2DL4 /// KIR2DL5A /// KIR2DL5B /// KIR2DS1 /// KIR2DS2 /// KIR2DS3 /// KIR2DS4 /// KIR3DL3 /// KIR3DL3 /// KIR3DS1 (11738374_at) / RFU C1QL1 (11718748_at) / Fold change /veh C1QL1 (11718748_at) / RFU TMPRSS4 (11747572_a_at) / Fold change /veh TMPRSS4 (11747572_a_at) / RFU HAMP (11756126_x_at) / Fold change /veh HAMP (11756126_x_at) / RFU RNFT2 (11725882_a_at) / Fold change /veh RNFT2 (11725882_a_at) / RFU NR4A2 (11747474_a_at) / Fold change /veh NR4A2 (11747474_a_at) / RFU ABCC12 (11746883_a_at) / Fold change /veh ABCC12 (11746883_a_at) / RFU TMEM136 (11760407_x_at) / Fold change /veh TMEM136 (11760407_x_at) / RFU CLDN22 /// WWC2 (11732394_at) / Fold change /veh CLDN22 /// WWC2 (11732394_at) / RFU HLA-DPB1 (11760878_x_at) / Fold change /veh HLA-DPB1 (11760878_x_at) / RFU SPINT1 (11716480_a_at) / Fold change /veh SPINT1 (11716480_a_at) / RFU GAP43 (11754022_s_at) / Fold change /veh GAP43 (11754022_s_at) / RFU A4GNT (11735810_at) / Fold change /veh A4GNT (11735810_at) / RFU PRB3 (11715151_x_at) / Fold change /veh PRB3 (11715151_x_at) / RFU TUBB4B (11761932_at) / Fold change /veh TUBB4B (11761932_at) / RFU CAPN14 (11732068_a_at) / Fold change /veh CAPN14 (11732068_a_at) / RFU TMCC2 (11721928_a_at) / Fold change /veh TMCC2 (11721928_a_at) / RFU IRGQ (11745062_a_at) / Fold change /veh IRGQ (11745062_a_at) / RFU FAM174B (11720279_a_at) / Fold change /veh FAM174B (11720279_a_at) / RFU TMPRSS4 (11748680_a_at) / Fold change /veh TMPRSS4 (11748680_a_at) / RFU FAM212B (11763350_a_at) / Fold change /veh FAM212B (11763350_a_at) / RFU PLEKHG5 (11743358_a_at) / Fold change /veh PLEKHG5 (11743358_a_at) / RFU ZSCAN30 (11745921_a_at) / Fold change /veh ZSCAN30 (11745921_a_at) / RFU CMKLR1 (11741424_a_at) / Fold change /veh CMKLR1 (11741424_a_at) / RFU LOC101060620 /// MAPK8IP1 (11723275_at) / Fold change /veh LOC101060620 /// MAPK8IP1 (11723275_at) / RFU SPTSSB (11747773_x_at) / Fold change /veh SPTSSB (11747773_x_at) / RFU PRSS12 (11739890_at) / Fold change /veh PRSS12 (11739890_at) / RFU BIN1 (11741810_x_at) / Fold change /veh BIN1 (11741810_x_at) / RFU WNT11 (11732464_a_at) / Fold change /veh WNT11 (11732464_a_at) / RFU C10orf10 (11716521_a_at) / Fold change /veh C10orf10 (11716521_a_at) / RFU C5orf56 (11738089_at) / Fold change /veh C5orf56 (11738089_at) / RFU CYB561 (11721691_x_at) / Fold change /veh CYB561 (11721691_x_at) / RFU ANKRD19P (11752326_a_at) / Fold change /veh ANKRD19P (11752326_a_at) / RFU OR2T12 /// OR2T33 /// OR2T8 (11738714_s_at) / Fold change /veh OR2T12 /// OR2T33 /// OR2T8 (11738714_s_at) / RFU VCAN (11748164_a_at) / Fold change /veh VCAN (11748164_a_at) / RFU JSRP1 (11732532_at) / Fold change /veh JSRP1 (11732532_at) / RFU KRTAP10-11 (11738290_x_at) / Fold change /veh KRTAP10-11 (11738290_x_at) / RFU MYO3A (11730013_a_at) / Fold change /veh MYO3A (11730013_a_at) / RFU EBF3 (11725865_a_at) / Fold change /veh EBF3 (11725865_a_at) / RFU CAMK2N1 (11719241_x_at) / Fold change /veh CAMK2N1 (11719241_x_at) / RFU C5orf56 (11738088_a_at) / Fold change /veh C5orf56 (11738088_a_at) / RFU OLFML3 (11715873_a_at) / Fold change /veh OLFML3 (11715873_a_at) / RFU LOC100653217 /// NTM (11731650_a_at) / Fold change /veh LOC100653217 /// NTM (11731650_a_at) / RFU MAPK11 (11762145_a_at) / Fold change /veh MAPK11 (11762145_a_at) / RFU FIZ1 (11724087_x_at) / Fold change /veh FIZ1 (11724087_x_at) / RFU OASL (11726364_x_at) / Fold change /veh OASL (11726364_x_at) / RFU SOX15 (11748057_x_at) / Fold change /veh SOX15 (11748057_x_at) / RFU CD79A (11719716_a_at) / Fold change /veh CD79A (11719716_a_at) / RFU HIST1H1D (11736915_at) / Fold change /veh HIST1H1D (11736915_at) / RFU CASKIN2 (11723855_a_at) / Fold change /veh CASKIN2 (11723855_a_at) / RFU LOC730098 (11760151_x_at) / Fold change /veh LOC730098 (11760151_x_at) / RFU OR4N2 (11742367_at) / Fold change /veh OR4N2 (11742367_at) / RFU PRRT2 (11749266_a_at) / Fold change /veh PRRT2 (11749266_a_at) / RFU SNX32 (11753110_a_at) / Fold change /veh SNX32 (11753110_a_at) / RFU CDHR5 (11726645_a_at) / Fold change /veh CDHR5 (11726645_a_at) / RFU RCAN1 (11760418_a_at) / Fold change /veh RCAN1 (11760418_a_at) / RFU FAM167A (11723789_a_at) / Fold change /veh FAM167A (11723789_a_at) / RFU FAM26E (11764081_at) / Fold change /veh FAM26E (11764081_at) / RFU ISYNA1 (11749810_s_at) / Fold change /veh ISYNA1 (11749810_s_at) / RFU ACY1 (11761880_at) / Fold change /veh ACY1 (11761880_at) / RFU 11764098_at / Fold change /veh 11764098_at / RFU SAMD14 (11745864_x_at) / Fold change /veh SAMD14 (11745864_x_at) / RFU NPB (11741838_a_at) / Fold change /veh NPB (11741838_a_at) / RFU TMPRSS6 (11731388_a_at) / Fold change /veh TMPRSS6 (11731388_a_at) / RFU KRTAP10-2 (11738614_at) / Fold change /veh KRTAP10-2 (11738614_at) / RFU ARHGAP8 /// PRR5-ARHGAP8 (11727945_x_at) / Fold change /veh ARHGAP8 /// PRR5-ARHGAP8 (11727945_x_at) / RFU KRTAP5-7 /// NADSYN1 (11734609_at) / Fold change /veh KRTAP5-7 /// NADSYN1 (11734609_at) / RFU RASL12 (11751679_a_at) / Fold change /veh RASL12 (11751679_a_at) / RFU CDKN2B (11736163_a_at) / Fold change /veh CDKN2B (11736163_a_at) / RFU PRF1 (11729649_at) / Fold change /veh PRF1 (11729649_at) / RFU, ZNF638 /// ZNF638-IT1 / Fold change vs veh, ZNF638 /// ZNF638-IT1 / RFU, PANK3 / Fold change vs veh, PANK3 / RFU, SH3YL1 / Fold change vs veh, SH3YL1 / RFU, ZEB2 / Fold change vs veh, ZEB2 / RFU, NRIP1 / Fold change vs veh, NRIP1 / RFU, PTTG1IP / Fold change vs veh, PTTG1IP / RFU, CAPN2 / Fold change vs veh, CAPN2 / RFU, MED14 / Fold change vs veh, MED14 / RFU, SNORA58 / Fold change vs veh, SNORA58 / RFU, C1orf63 / Fold change vs veh, C1orf63 / RFU, LRRFIP1 / Fold change vs veh, LRRFIP1 / RFU, NDUFAF7 / Fold change vs veh, NDUFAF7 / RFU, SLC12A2 / Fold change vs veh, SLC12A2 / RFU, IBTK / Fold change vs veh, IBTK / RFU, ESF1 / Fold change vs veh, ESF1 / Fold change vs veh, TMEM50B / RFU, TAOK1 / Fold change vs veh, TAOK1 / RFU, ACBD3 / Fold change vs veh, ACBD3 / RFU, TMA16 / Fold change vs veh, TMA16 / RFU, RWDD3 / Fold change vs veh, RWDD3 / RFU, BCAT1 / Fold change vs veh, BCAT1 / RFU, EDEM3 / Fold change vs veh, EDEM3 / RFU, TMEM33 / Fold change vs veh, TMEM33 / RFU, WDR75 / Fold change vs veh, WDR75 / RFU, AHCTF1 / Fold change vs veh, AHCTF1 / RFU, TFRC / Fold change vs veh, TFRC / RFU, ZDHHC17 / Fold change vs veh, ZDHHC17 / RFU, NOM1 / Fold change vs veh, NOM1 / RFU, ARL8B / Fold change vs veh, ARL8B / RFU, ZBTB11 / Fold change vs veh, ZBTB11 / RFU, TAMM41 / Fold change vs veh, TAMM41 / RFU, KIAA1704 /// LOC100996395 / Fold change vs veh, KIAA1704 /// LOC100996395 / RFU, ING1 / Fold change vs veh, ING1 / RFU, TRMT61B / Fold change vs veh, TRMT61B / RFU, FUBP3 / Fold change vs veh, FUBP3 / RFU, TP53 / Fold change vs veh, TP53 / RFU, TNKS2 / Fold change vs veh, TNKS2 / RFU, ZFP14 / Fold change vs veh, ZFP14 / RFU, ACTR2 / Fold change vs veh, ACTR2 / RFU, PPP3R1 / Fold change vs veh, PPP3R1 / RFU, PIK3R1 / Fold change vs veh, PIK3R1 / RFU, HNRNPA1 / Fold change vs veh, HNRNPA1 / RFU, RNF170 / Fold change vs veh, RNF170 / RFU, ZNF28 / Fold change vs veh, ZNF28 / RFU, RNGTT / Fold change vs veh, RNGTT / RFU, OGT / Fold change vs veh, OGT / RFU, BRD1 / Fold change vs veh, BRD1 / RFU, MARS / Fold change vs veh, MARS / RFU, ZNF655 / Fold change vs veh, ZNF655 / RFU, FAHD1 / Fold change vs veh, FAHD1 / RFU, BDP1 / Fold change vs veh, BDP1 / RFU, LRRCC1 / Fold change vs veh, LRRCC1 / RFU, ARID1A / Fold change vs veh, ARID1A / RFU, ZNF146 / Fold change vs veh, ZNF146 / RFU, ZNF330 / Fold change vs veh, ZNF330 / RFU, GPN3 / Fold change vs veh, GPN3 / RFU, C9orf123 / Fold change vs veh, C9orf123 / RFU, N4BP2L2 / Fold change vs veh, N4BP2L2 / RFU, ARFIP1 / Fold change vs veh, ARFIP1 / RFU, FAM179B / Fold change vs veh, FAM179B / RFU, BCL10 / Fold change vs veh, BCL10 / RFU, UHRF1BP1L / Fold change vs veh, UHRF1BP1L / RFU, BET1 / Fold change vs veh, BET1 / RFU, CNOT2 / Fold change vs veh, CNOT2 / RFU, ZNF268 / Fold change vs veh, ZNF268 / Fold change vs veh, ZNF507 / RFU, DGCR2 / Fold change vs veh, DGCR2 / RFU, WDSUB1 / Fold change vs veh, WDSUB1 / Fold change vs veh, HSP90B1 /// MIR3652 / RFU, ADSS / Fold change vs veh, ADSS / RFU, GK / Fold change vs veh, GK / RFU, ZNF148 / Fold change vs veh, ZNF148 / RFU, TAF9 / Fold change vs veh, TAF9 / RFU, SLC1A5 / Fold change vs veh, SLC1A5 / RFU, SLMO2 / Fold change vs veh, SLMO2 / RFU, ABCC4 / Fold change vs veh, ABCC4 / RFU, LOC101060439 /// RAP1B / Fold change vs veh, LOC101060439 /// RAP1B / RFU, RFX7 / Fold change vs veh, RFX7 / RFU, GTPBP10 / Fold change vs veh, GTPBP10 / RFU, CNEP1R1 / Fold change vs veh, CNEP1R1 / RFU, BIVM-ERCC5 /// ERCC5 / Fold change vs veh, BIVM-ERCC5 /// ERCC5 / RFU, ILF3 / Fold change vs veh, ILF3 / RFU 11762660_at / Fold change /veh 11762660_at / RFU VCAN (11757783_s_at) / Fold change /veh VCAN (11757783_s_at) / RFU DDX43 (11728927_at) / Fold change /veh DDX43 (11728927_at) / RFU KRT8 (11758188_x_at) / Fold change /veh KRT8 (11758188_x_at) / RFU NKD1 (11759106_at) / Fold change /veh NKD1 (11759106_at) / RFU SRD5A1 (11742802_a_at) / Fold change /veh SRD5A1 (11742802_a_at) / RFU TPSAB1 /// TPSB2 (11721975_s_at) / Fold change /veh TPSAB1 /// TPSB2 (11721975_s_at) / RFU GSTM3 (11746129_a_at) / Fold change /veh GSTM3 (11746129_a_at) / RFU IL23R (11737362_x_at) / Fold change /veh IL23R (11737362_x_at) / RFU TMEM51 (11727254_a_at) / Fold change /veh TMEM51 (11727254_a_at) / RFU PIWIL2 (11732686_x_at) / Fold change /veh PIWIL2 (11732686_x_at) / RFU ORM1 (11744905_x_at) / Fold change /veh ORM1 (11744905_x_at) / RFU CCDC152 (11743942_at) / Fold change /veh CCDC152 (11743942_at) / RFU ECM1 (11717891_a_at) / Fold change /veh ECM1 (11717891_a_at) / RFU IL23R (11748794_a_at) / Fold change /veh IL23R (11748794_a_at) / RFU TNFAIP8L3 (11732012_x_at) / Fold change /veh TNFAIP8L3 (11732012_x_at) / RFU MBOAT4 (11741988_at) / Fold change /veh MBOAT4 (11741988_at) / RFU 11764193_at / Fold change /veh 11764193_at / RFU TMEM53 (11763286_at) / Fold change /veh TMEM53 (11763286_at) / RFU MAGEB2 (11727129_at) / Fold change /veh MAGEB2 (11727129_at) / RFU TMEM200A (11744735_a_at) / Fold change /veh TMEM200A (11744735_a_at) / RFU CCDC152 (11751479_a_at) / Fold change /veh CCDC152 (11751479_a_at) / RFU FAM211A (11726209_a_at) / Fold change /veh FAM211A (11726209_a_at) / RFU RGS16 (11746705_a_at) / Fold change /veh RGS16 (11746705_a_at) / RFU VCAN (11755009_s_at) / Fold change /veh VCAN (11755009_s_at) / RFU RHOB (11743442_s_at) / Fold change /veh RHOB (11743442_s_at) / RFU RGS16 (11720943_a_at) / Fold change /veh RGS16 (11720943_a_at) / RFU RGS16 (11720944_at) / Fold change /veh RGS16 (11720944_at) / RFU, VPS4B / Fold change vs veh, VPS4B / RFU, CREB1 / Fold change vs veh, CREB1 / RFU, DNAJC13 / Fold change vs veh, DNAJC13 / RFU, GNAQ / Fold change vs veh, GNAQ / RFU, CDK5R1 / Fold change vs veh, CDK5R1 / RFU, ZRANB3 / Fold change vs veh, ZRANB3 / RFU, CUL4A / Fold change vs veh, CUL4A / RFU, CCNY / Fold change vs veh, CCNY / RFU, UFL1 / Fold change vs veh, UFL1 / RFU, COG3 / Fold change vs veh, COG3 / RFU, DIAPH2 / Fold change vs veh, DIAPH2 / RFU, SKA2 / Fold change vs veh, SKA2 / RFU, AFF3 / Fold change vs veh, AFF3 / RFU, LMF1 / Fold change vs veh, LMF1 / RFU, IPO11 / Fold change vs veh, IPO11 / RFU, DFFB / Fold change vs veh, DFFB / RFU, FOXP1 / Fold change vs veh, FOXP1 / RFU, CARD8 / Fold change vs veh, CARD8 / RFU, STRN3 / Fold change vs veh, STRN3 / RFU, ADK / Fold change vs veh, ADK / RFU, RASSF2 / Fold change vs veh, RASSF2 / RFU, WIPF1 / Fold change vs veh, WIPF1 / RFU, LARP1B / Fold change vs veh, LARP1B / RFU, RASA1 / Fold change vs veh, RASA1 / RFU, RB1 / Fold change vs veh, RB1 / RFU, PPFIA1 / Fold change vs veh, PPFIA1 / RFU, MAT2A / Fold change vs veh, MAT2A / RFU, CCT5 / Fold change vs veh, CCT5 / RFU, WDR92 / Fold change vs veh, WDR92 / RFU, CUX1 / Fold change vs veh, CUX1 / RFU, TTC7A / Fold change vs veh, TTC7A / RFU, TMEM135 / Fold change vs veh, TMEM135 / RFU, DEPTOR / Fold change vs veh, DEPTOR / RFU, CPM / Fold change vs veh, CPM / RFU, DNAJB6 / Fold change vs veh, DNAJB6 / RFU, CACNA2D3 / Fold change vs veh, CACNA2D3 / RFU, DTX4 / Fold change vs veh, DTX4 / RFU, TFCP2 / Fold change vs veh, TFCP2 / RFU, GMCL1 /// GMCL1P1 / Fold change vs veh, GMCL1 /// GMCL1P1 / RFU, AEBP2 / Fold change vs veh, AEBP2 / RFU, SNHG1 /// SNORD22 /// SNORD25 /// SNORD26 /// SNORD27 /// SNORD28 /// SNORD29 /// SNORD31 / Fold change vs veh, SNHG1 /// SNORD22 /// SNORD25 /// SNORD26 /// SNORD27 /// SNORD28 /// SNORD29 /// SNORD31 / Fold change (Aza/veh), C12orf56 (ProbeSet 11735607_a_at) / Fold change (ACY-1035/veh), C12orf56 (ProbeSet 11735607_a_at) / Fold change (Aza/veh), FGFR1OP (ProbeSet 11751329_s_at) / Fold change (ACY-1035/veh), FGFR1OP (ProbeSet 11751329_s_at) / Fold change (Aza/veh), VPS36 (ProbeSet 11739960_a_at) / Fold change (ACY-1035/veh), VPS36 (ProbeSet 11739960_a_at) / RFU SYPL1 (11715823_x_at) / Fold change /veh SYPL1 (11715823_x_at) / RFU IGFBP7 (11715501_s_at) / Fold change /veh IGFBP7 (11715501_s_at) / RFU REEP3 (11722064_at) / Fold change /veh REEP3 (11722064_at) / RFU IGLL1 (11728026_x_at) / Fold change /veh IGLL1 (11728026_x_at): dose or concentration left out as unconfirmed", "conditions": "MV-4-11 cells, 48 hours"}
{"smiles": "Nc1ncn([C@@H]2O[C@H](CO)[C@@H](O)[C@H]2O)c(=O)n1", "note": "[azacitidine]", "values": [{"measurement": "Fold change /veh TMCC2 (11721928_a_at)", "value": 0.97}]}
